Measurements taken from the supplement of paper PMC10307832.

How the values were obtained:
Assay in all cases: relative viability (nuclei count vs DMSO), 5 days (fraction); higher = more cells survive
VE-821 + Alpelisib = compound: CS(=O)(=O)c1ccc(-c2cnc(N)c(C(=O)Nc3ccccc3)n2)cc1 [VE-821] + Cc1nc(NC(=O)N2CCC[C@H]2C(N)=O)sc1-c1ccnc(C(C)(C)C(F)(F)F)c1 [Alpelisib] (partner 2 µM)
In short: (§1)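 Cells from lung cancer lines were seeded into 1536-well plates and, one day later, dosed by pin tool. Treatments were either a single drug or a fixed dose of an anchor drug with five library-drug doses (not always all listed) in √10 steps. After 5 days, nuclei were stained in a one-step fixation (final 0.05% Triton X-100, 1% formaldehyde, 1 ug/ml Hoechst) and counted on 4× images, and relative viability is the treated-to-vehicle nuclei ratio, as the median of duplicate plates.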

Vismodegib + Crizotinib = compound: CS(=O)(=O)c1ccc(C(=O)Nc2ccc(Cl)c(-c3ccccn3)c2)c(Cl)c1 [Vismodegib] + C[C@@H](Oc1cc(-c2cnn(C3CCNCC3)c2)cnc1N)c1c(Cl)ccc(F)c1Cl [Crizotinib] (partner 1 µM)
In short: as §1

Vismodegib + Alpelisib = compound: CS(=O)(=O)c1ccc(C(=O)Nc2ccc(Cl)c(-c3ccccn3)c2)c(Cl)c1 [Vismodegib] + Cc1nc(NC(=O)N2CCC[C@H]2C(N)=O)sc1-c1ccnc(C(C)(C)C(F)(F)F)c1 [Alpelisib] (partner 2 µM)
In short: as §1

Ruxolitinib + Alpelisib = compound: N#CC[C@H](C1CCCC1)n1cc(-c2ncnc3[nH]ccc23)cn1 [Ruxolitinib] + Cc1nc(NC(=O)N2CCC[C@H]2C(N)=O)sc1-c1ccnc(C(C)(C)C(F)(F)F)c1 [Alpelisib] (partner 2 µM)
In short: as §1

| Cell Line | relative viability (VE-821 + Alpelisib; first compound 0.08 µM) | relative viability (VE-821 + Alpelisib; first compound 0.253 µM) | relative viability (VE-821 + Alpelisib; first compound 0.8 µM) | relative viability (VE-821 + Alpelisib; first compound 2.53 µM) | relative viability (VE-821 + Alpelisib; first compound 8 µM) | relative viability (Vismodegib + Crizotinib; first compound 0.08 µM) | relative viability (Vismodegib + Crizotinib; first compound 0.253 µM) | relative viability (Vismodegib + Crizotinib; first compound 0.8 µM) | relative viability (Vismodegib + Crizotinib; first compound 2.53 µM) | relative viability (Vismodegib + Crizotinib; first compound 8 µM) | relative viability (Vismodegib + Alpelisib; first compound 0.08 µM) | relative viability (Vismodegib + Alpelisib; first compound 0.253 µM) | relative viability (Vismodegib + Alpelisib; first compound 0.8 µM) | relative viability (Vismodegib + Alpelisib; first compound 2.53 µM) | relative viability (Vismodegib + Alpelisib; first compound 8 µM) | relative viability (Ruxolitinib + Alpelisib; first compound 0.08 µM) | relative viability (Ruxolitinib + Alpelisib; first compound 0.253 µM) | relative viability (Ruxolitinib + Alpelisib; first compound 0.8 µM) | relative viability (Ruxolitinib + Alpelisib; first compound 2.53 µM) | relative viability (Ruxolitinib + Alpelisib; first compound 8 µM) |
| --- | --- | --- | --- | --- | --- | --- | --- | --- | --- | --- | --- | --- | --- | --- | --- | --- | --- | --- | --- | --- |
| NCI-H2085 | 1 | 0.853 | 0.713 | 0.984 | 0.922 | 0.867 | 0.873 | 0.854 | 0.826 | 0.83 | 0.899 | 0.841 | 0.992 | 0.931 | 0.962 | 0.971 | 1.02 | 1.13 | 0.979 | 0.822 |
| NCI-H2087 | 1.18 | 0.945 | 1.4 | 1.06 | 1.06 | 0.834 | 0.906 | 0.713 | 0.797 | 0.908 | 1.02 | 1.07 | 1.05 | 1 | 0.995 | 0.951 | 0.832 | 1.13 | 0.769 | 0.954 |
| NCI-H2126 | 0.757 | 0.744 | 0.625 | 0.747 | 0.645 | 1.11 | 0.96 | 1.08 | 0.991 | 1.04 | 0.681 | 0.734 | 0.782 | 0.686 | 0.706 | 0.773 | 0.767 | 0.782 | 0.807 | 0.789 |
| NCI-H2170 | 0.979 | 0.808 | 0.624 | 0.777 | 0.543 | 1.23 | 1.08 | 1.19 | 1.17 | 1.31 | 0.836 | 0.814 | 0.872 | 0.836 | 0.794 | 0.891 | 0.857 | 0.753 | 0.821 | 0.737 |
| NCI-H2228 | 0.7 | 0.825 | 0.683 | 0.687 | 0.737 | 0.563 | 0.412 | 0.426 | 0.547 | 0.419 | 0.643 | 0.952 | 0.606 | 0.622 | 0.758 | 0.667 | 0.56 | 0.773 | 0.46 | 0.361 |
| NCI-H2347 | 1.08 | 0.997 | 0.916 | 1.18 | 0.977 | 0.691 | 0.713 | 0.64 | 0.582 | 0.656 | 0.966 | 0.994 | 0.91 | 1.02 | 1.1 | 0.949 | 0.999 | 1.17 | 0.984 | 1.19 |
| NCI-H2405 | 0.908 | 0.808 | 0.67 | 0.984 | 0.573 | 0.851 | 0.86 | 0.807 | 0.784 | 0.83 |  | 0.81 | 0.676 | 0.603 | 0.875 |  | 0.715 | 0.984 | 0.416 | 0.465 |
| NCI-H3122 | 0.949 | 0.746 | 0.774 | 0.871 | 0.78 | 0.307 | 0.286 | 0.255 | 0.295 | 0.268 | 0.798 | 0.726 | 0.816 | 0.78 | 0.629 | 0.807 | 0.786 | 0.851 | 0.556 | 0.617 |
| PC-3 [JPC-3] | 1.05 | 0.957 | 1.02 | 1.05 | 1.04 | 0.93 | 0.991 | 0.964 | 0.93 | 0.956 | 0.971 | 1.04 | 1.04 | 0.941 | 0.972 | 0.763 | 1.05 | 1.1 | 0.991 | 0.932 |
| PC-14 | 1.08 | 0.863 | 0.981 | 0.931 | 0.936 | 0.835 | 0.777 | 0.971 | 0.914 | 0.839 | 0.884 | 0.888 | 1.03 | 0.907 | 0.926 |  | 0.868 | 0.902 | 0.879 | 0.78 |
| RERF-LC-KJ | 0.898 | 0.774 | 0.664 | 0.799 | 0.712 | 0.821 | 0.813 | 0.81 | 0.848 | 0.82 | 0.789 | 0.748 | 0.909 | 0.748 | 0.773 | 0.811 | 0.775 | 0.892 | 0.877 | 0.771 |
| SK-LU-1 | 1.02 | 0.964 | 0.803 | 0.499 | 0.328 | 1.02 | 0.817 | 0.874 | 0.881 | 0.997 | 1.07 | 0.987 | 1.07 | 0.894 | 1.06 | 1.18 | 1.05 | 1.11 | 0.823 | 0.623 |
| SK-MES-1 | 1.03 | 0.847 | 0.776 | 0.954 | 0.866 | 0.94 | 0.936 | 0.923 | 0.969 | 1.07 | 0.851 | 0.956 | 0.802 | 0.827 | 0.837 | 0.984 | 0.878 | 0.986 | 0.722 | 0.795 |
| SW 1573 | 1.07 | 0.713 | 0.745 | 0.888 | 0.774 | 0.895 | 0.755 | 0.827 | 0.774 | 0.956 | 0.7 | 0.691 | 0.717 |  | 0.754 | 0.926 | 0.712 | 0.984 | 0.558 | 0.687 |
